Non-standard residues stand in square brackets, D forms with d. Residues, ends and D or L forms follow the SMILES beside them. *: point of attachment. Lauroyl = CCCCCCCCCCCC(=O)*
Experiments:
Chymotrypsin = test: Inhibition of enzymatic degradation of a model GLP-1 (FRET substrate) by chymotrypsin; assay type: biochemical; conditions: for Slope of the initial increase in fluorescence obtained during incubation with 0.001 mg/ml Chymotrypsin: compound 1 mM; for EC50: read-out: EC50 Chymotrypsin (0.001 mg/ml), 0.001 mg/ml chymotrypsin, 37° C., ± standard error if at least 3 measurements
How it was run: (§1)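 MCA/DNP-labelled model GLP-1 FRET substrate (10 μl of 100 μM stock) in Dulbecco's PBS at 37° C with varying acylated peptide; fluorescence (ex 320/em 405 nm) read every minute for ≥30 min. Initial slopes from linear regression, duplicates averaged; EC50 by sigmoidal logistic fit of slope vs concentration.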

Trypsin = test: Inhibition of enzymatic degradation of a model GLP-1 (FRET substrate) by trypsin; assay type: biochemical; conditions: for Slope of the initial increase in fluorescence obtained during incubation with 0.001 mg/ml Trypsin: compound 1 mM; for EC50: read-out: EC50 Trypsin (0.001 mg/ml), 0.001 mg/ml trypsin, 37° C.
How it was run: as §1

[1] = Stability of N-terminally acylated peptides or oligopeptides in GI juice; assay type: in vitro ADME; conditions: degradation of the compound itself in jejunum extract from rat, read-out: t 1/2 in rat GI juice
Protocol: 96 well plates were coated by incubating with 0.4% Bovine serum albumin (BSA) solution for minimum of 60 min. To each well, 210 μl of buffer (Hank's balanced salt solution-4-(2-hydroxyethyl)-1-piperazineethanesulfonic acid (HBSS-HEPES) buffer) with 0.005% Tween 20 and 0.001% BSA, pH 6.5 precipitated with 3 vol. cold 96% ethanol (EtOH) w. 1% TFA), 30 μl of a substrate (100 μM insulin analogue or GLP-1 analogue in buffer) and 30 μl of N-terminally acylated peptide or oligopeptide of the invention (10 mM) were added. The plates were pre-incubated (before adding GI juice) for 60 min at 37° C. After addition of 30 μl of GI juice (10-times diluted in buffer), the plates were incubated for 60 min/37° C. on shaker. Samples (40 μl) were taken at 0, 5, 10, 20, 30 and 60 min, stopped with 3 vol. cold 96% EtOH w. 1% TFA and spun down in plates (4500 rpm for 10 min). Samples were diluted 5 times with the buffer prior to LC-MS analysis. Standard samples (0.1, 0.5, 1.0, 5.0, 10.0 μM) were prepared and treated as the samples. Standard curve was analysed both at the beginning and the end of the sequence. Two replicates of each tested conditions were included. Ion suppression was assessed by analyzing a standard at 1 μM and at 10 μM with 1 mM inhibitor present. Intact insulin or GLP-1 analoues were determined at each sample. The results were plotted against the incubation time. Half-lives of the insulin or GLP-1 analogues were determined by nonlinear regression of the results using, for example Graph Pad Prism. The half-lives were expressed relative to the half-live of the insulin or GLP-1 analogue without inhibitor present by dividing the half-lives obtained in the presence of inhibitor with those obtained in the absence of inhibitors. GI juice was prepared from male Sprague Dawley rats (200-250 g) by excising approximately 20 cm piece of mid jejunum and rinsing the inside with 2.5 ml 0.9% sodium chloride solution. The sodium chloride solution was collected in a centrifuge tube, pooled from all rats (20) and centrifuged at 4500 rpm./10 min/4° C. The supernatant was aliquoted in tubes and stored at −80° C.
Degradation of the N-terminally fatty acid modified peptide or oligopeptide of the invention themselves in jejunum extract from rat (GI juice) and determination of half-lives, was measured as described above (example 200).

[2] = Hydrophobicity: retention time during reverse phase HPLC; assay type: physicochemical; conditions: Acquity CSH C18; pH 7.2 buffer/CH3CN gradient; 40° C.
Description: The retention time (RT) during reverse phase HPLC was taken as a measure of hydrophobicity of an N-terminally modified peptide or oligopeptide of the invention, where the connection is: The longer the RT, the more hydrophobic N-terminally modified peptide or oligopeptide. The following running conditions were applied during HPLC analysis:
Buffer B: 70% (v/v) aq. CH3CN

| EC50 (Chymotrypsin) [µM] | EC50 (Trypsin) [µM] | half-life at 1 mM ([1]; male, Sprague Dawley, rat GI juice (jejunum extract), pH 6.5) [min] | RT (retention time during reverse phase HPLC as a measure of hydrophobicity) [2] [min] | half-life ([1]; GI juice (jejunum extract)) [min] | SMILES | Slope of the initial increase in fluorescence obtained during incubation with 0.001 mg/ml Chymotrypsin (Chymotrypsin) | Slope of the initial increase in fluorescence obtained during incubation with 0.001 mg/ml Trypsin (Trypsin) |
| --- | --- | --- | --- | --- | --- | --- | --- |
| 476 | > 500 | > 1000 | 6.91 | – | CCCCCCCCCCCC(=O)N[C@H](C)C(=O)N[C@H](C)C(=O)N1CCC[C@@H]1C(=O)N[C@H](Cc1ccccc1)C(=O)O [Example 1, N-dodecanoyl-DAla-DAla-DPro-DPhe-OH] (Lauroyl-[dA][dA][dP][dF]-OH) | 0.41 | 0.39 |
| 200 ± 26 | 317 | – | 6.94 | 3.5 | CCCCCCCCCCCC(=O)N[C@@H](C)C(=O)N[C@@H](C)C(=O)N1CCC[C@H]1C(=O)N[C@@H](Cc1ccccc1)C(=O)O [Example 34, N-dodecanoyl-Ala-Ala-Pro-Phe-OH] (Lauroyl-AAPF-OH) | 0.07 | 0.31 |

Source: patent US20150038435A1, “N-TERMINALLY MODIFIED OLIGOPEPTIDES AND USES THEREOF” (Novo Nordisk A/S, priority 2012, published 2015)
